Reference: PubChem BioAssay (NCI)
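Growth conditions: 96-well plates. Treatment: test compound, 48 hours, 5 concentrations. Analysis: linear interpolation between bracketing concentrations; unreached endpoints set to highest concentration. Definition used: TGI = concentration required for complete inhibition of growth.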

Assays:
Assay in all cases: NCI anticancer screen, dose series, 48 h
CCRF-CEM leukemia = test system: CCRF-CEM leukemia
A498 renal = test system: A498 renal
LOX IMVI melanoma = test system: LOX IMVI melanoma
OVCAR-4 ovarian = test system: OVCAR-4 ovarian
UACC-257 melanoma = test system: UACC-257 melanoma
UO-31 renal = test system: UO-31 renal
K-562 leukemia = test system: K-562 leukemia
MDA-N = test system: MDA-N

| SMILES | TGI (CCRF-CEM leukemia) [µM] | TGI (A498 renal) [µM] | TGI (LOX IMVI melanoma) [µM] | TGI (OVCAR-4 ovarian) [µM] | TGI (UACC-257 melanoma) [µM] | TGI (UO-31 renal) [µM] | TGI (K-562 leukemia) [µM] | TGI (MDA-N) [µM] |
| --- | --- | --- | --- | --- | --- | --- | --- | --- |
| C[n+]1ccc(/C2=C3\C=CC(=N3)/C(c3cc[n+](C)cc3)=c3/cc/c([nH]3)=C(\c3cc[n+](C)cc3)C3=N/C(=C(/c4cc[n+](C)cc4)C4C=CC2N4)C=C3)cc1 | > 100 | > 100 | > 100 | > 100 | > 100 | > 100 | > 100 | > 100 |
| O=[N+]([O-])c1nccn1CCCNc1ccnc2cc(Cl)ccc12 | > 100 | > 70.9 | > 100 | > 100 | > 9.02 | > 88.4 | > 100 | > 100 |
| CC1=NC(=Cc2cccc(Cl)c2)C(=O)N1n1c(-c2ccccc2)nc2ccccc2c1=O | > 100 | 83.1 | 55.2 | – | 70.3 | > 100 | > 100 | > 100 |
| O=C1C=CC2(C=C1)O[C@H](Cc1ccccc1)[C@@H](Cc1ccccc1)O2 | 0.585 | 16.6 | 0.824 | 1.69 | 4.51 | 0.69 | 5.58 | 0.66 |
| O=C1OCC2OC(=O)c3cc(O)c(O)c(O)c3-c3c(O)c(O)c(O)c4c3C(=O)OC(C2OC(=O)c2cc(O)c(O)c(O)c2-c2c1cc(O)c(O)c2O)C1OC(=O)c2c-4c(O)c(O)c(O)c2[C@@H]1C(O)C(O)C(O)C(O)CO (some centres undefined) | 23.7 | > 100 | 6.04 | 41 | 46.7 | 33.8 | 33.3 | 25.5 |
| CC(C)(C)OC(=O)N/N=C(/N)Cc1ccc(Cl)cc1 | > 100 | > 100 | > 100 | > 100 | > 100 | > 100 | > 100 | > 100 |
| COC(=O)[C@@H]1[C@H](OC(C)=O)CCC2[C@@]3(C[C@@H](c4ccoc4)O[C@@H]3OC)[C@H](C)CC[C@]21C(=O)OC (some centres undefined) | > 25 | > 25 | > 25 | > 25 | > 25 | > 25 | > 25 | > 25 |
| COc1ccc(C2SCC(=O)N2c2ccc(-c3ccc(-n4c(-c5ccccc5)nc5ccccc5c4=O)cc3)cc2)cc1OC (centres undefined) | 92.5 | > 100 | 51.5 | > 100 | > 100 | > 100 | 96 | > 100 |
| CC1=NN(C(=O)c2ccncc2)C(=O)C1 | > 100 | > 100 | > 100 | > 100 | > 100 | > 100 | > 100 | > 100 |
| CCOC(=O)C1=NOC2(C=C(Br)C(=O)C(Br)=C2)C1 | – | 38 | 7.63 | – | 2.71 | 2.51 | 6.42 | 3.39 |
| COc1cc2c(c(OC)c1)/C(=C/Sc1ccccc1)C(=O)N(C(C)(C)C)C2 | > 100 | 78.1 | 37.1 | > 100 | 85.3 | – | > 100 | 73 |
| Cc1ccccc1-n1c(=O)c2ncn(C3CCCO3)c2n(-c2ccccc2C)c1=S (centres undefined) | > 100 | > 100 | > 100 | – | > 100 | > 100 | > 100 | > 100 |
| COc1c(Br)cc2c(c1OC)C(Br)CCC(Br)(Br)C2=O (centres undefined) | – | 12.3 | 1.58 | 6.87 | 14.7 | 2.89 | 8.76 | 0.684 |
| NC(N)=NCCCC(NC(=O)c1cccc2c(=O)c3ccccc3[nH]c12)C(=O)O (centres undefined) | > 100 | > 100 | > 100 | > 100 | – | > 100 | > 100 | > 100 |
| Oc1ccc(-c2cc(-c3cc(-c4ccc(O)cc4)no3)on2)cc1 | > 100 | > 100 | > 100 | > 100 | > 31.1 | > 100 | > 100 | > 100 |
| CC(=O)c1ccc2c(c1)CC1(C2)Cc2cc3c(cc2C1=O)CCC3 (centres undefined) | 59.2 | 51.7 | 40.6 | 48 | 30.2 | 63.5 | > 100 | 32.9 |
| COc1cc2c(cc1OC)C1C=NC(C2)c2cc(OC)c(OC)cc21 (centres undefined) | – | > 100 | > 100 | > 100 | > 100 | > 100 | > 100 | > 100 |
| CS(=O)(=O)OCC1CN(S(C)(=O)=O)c2cc(O)ccc21 (centres undefined) | 5.76 | 7.81 | 13.3 | 7.65 | 7.72 | 11.1 | 10.3 | 4.52 |

| SMILES | TGI (CCRF-CEM leukemia) [µM] | TGI (A498 renal) [µM] | TGI (LOX IMVI melanoma) [µM] | TGI (OVCAR-4 ovarian) [µM] | TGI (UACC-257 melanoma) [µM] | TGI (UO-31 renal) [µM] | TGI (K-562 leukemia) [µM] | TGI (MDA-N) [µM] |
| --- | --- | --- | --- | --- | --- | --- | --- | --- |
| COc1cc(/C=C/c2nc(NC(=S)Nc3ccccc3)nnc2C)cc(OC)c1OC | 57.7 | 82.4 | > 100 | 76.4 | > 100 | 67.7 | 78.2 | > 100 |
| COc1cc2c3c(c1)CCCN3CCC2 | > 10 | > 10 | > 10 | > 10 | > 10 | > 10 | > 10 | > 10 |
| CCN1C(=O)c2cc(OC)c(OC)cc2C(=O)C12OC(=O)c1cc3c(cc12)OCO3 (centres undefined) | > 100 | > 100 | > 100 | > 100 | > 100 | > 100 | > 100 | > 100 |
| CCN(CC)CC1CCCCN1CC(=O)N1c2ccccc2C(=O)Nc2cccnc21 (centres undefined) | 38.5 | > 100 | 57.2 | > 100 | 75.2 | 4.96 | – | > 100 |
| Cn1c(=O)c2c(nc3n2CC(=O)N3CCCCl)n(C)c1=O | > 100 | > 100 | > 100 | > 100 | > 100 | > 100 | > 100 | > 100 |
| COC(=O)[C@@H]1CC(C(C[N+](=O)[O-])c2ccc(O[Si](C)(C)C(C)(C)C)cc2)C(=O)N1C(=O)OC(C)(C)C (some centres undefined) | > 100 | > 100 | > 100 | > 100 | > 100 | > 100 | > 100 | > 100 |
| CN(C)c1ccc(C(Cc2ccccc2)C2NC(=S)NC2=O)cc1 (centres undefined) | > 100 | > 100 | > 100 | > 100 | > 100 | > 100 | > 100 | > 100 |
| CCOC(=O)/C(C=Nc1c(C)n(C)n(-c2ccccc2)c1=O)=C(/C)O | > 100 | > 100 | > 100 | > 100 | > 100 | > 100 | > 100 | > 100 |
| C[C@]12CC[C@@H]3c4cc(OCC(F)(F)F)c(O)cc4CC[C@H]3[C@@H]1CC[C@@H]2O | 15.2 | 20.7 | 17.1 | > 53.1 | 21.4 | 22.3 | 13.5 | 1.29 |
| COC(=O)[C@H](CCSC)NC(=O)N[C@H](C)c1ccccc1 | > 100 | > 100 | > 100 | > 100 | > 100 | > 100 | > 100 | > 100 |
| CNC(=O)C1(N)c2ccccc2C=Cc2ccccc21 | > 100 | > 100 | > 100 | > 100 | – | > 100 | > 100 | > 100 |
| CCC1(c2ccccc2)C(=O)N=C(c2ccccc2)N1CCc1ccccc1 (centres undefined) | > 100 | > 100 | > 100 | > 100 | > 100 | > 100 | > 100 | > 100 |
| C=CCN1C(=O)/C(=C/c2cccs2)N=C1SC/C=C/C | > 100 | 98.8 | > 100 | > 100 | > 100 | > 100 | > 100 | > 100 |
| Cc1ccc(NC(Nc2ccc(C)cc2C)=C(/C=C(\Cl)[N+](=O)[O-])[N+](=O)[O-])c(C)c1 | 1.72 | 32.4 | 3.25 | 12.9 | 13.1 | 19.2 | 3.75 | 10.9 |
| CCc1nn(CN2CCOCC2)c(=S)n1/N=C/c1ccc(-c2ccc(Cl)cc2)o1 | – | > 100 | > 100 | > 100 | > 100 | > 100 | > 100 | > 100 |
| CC(=O)Nc1ccc(C(O)/C(=N/N)c2nc3ccc(Cl)cc3[nH]c2=O)cc1 (centres undefined) | > 100 | > 100 | > 100 | > 100 | > 100 | > 100 | – | > 100 |
| O=c1[nH]cc(-c2c[nH]c3ccccc23)nc1-c1c[nH]c2ccccc12 | – | 27.9 | 27.5 | 43.3 | 26.9 | 29.8 | 9.21 | 9.44 |
| O=C(O)C12C3CCC(CC3)C1(C(=O)O)C1CCC2C1 (centres undefined) | > 100 | > 100 | > 100 | – | > 100 | > 100 | > 100 | > 100 |
